According to US9114086B2, “Coated tablets of eszopiclone” (Sunovion Pharmaceuticals Inc., priority 2009, dated 2015):

Assays:
[1] = Instantaneous dissolution of coated tablets in 5% human saliva solution, LC/MS/MS; format: physicochemical
Text: A typical procedure for preparing the instantaneous dissolution solutions of coated tablets is described as follows: a tablet comprising a core and a film coating—in this case a coated eszopiclone tablet—is randomly selected, and then placed into a basket sinker (e.g., Hanson Research Part # ENMISC, BSK008-JP 8 mesh, 0.76″ L×0.41″ W) with long handle (made from stainless steel tubing). The basket is then immersed in dissolution diluent (e.g., 5% human saliva solution) in vial 1 for 2-5 seconds, then moved to vial 2 for 2-5 seconds dipping and so on with the same tablet. The dissolution diluents (e.g., 5% human saliva solution in water) can be prepared by mixing thoroughly about 50 mL of normal human saliva and about 950 mL of water in a suitable container. About 5 mL of the 5% human saliva solution is then pipetted into several scintillation vials (approximately 20 mL volume). This procedure has been employed with tablets coated with about 2-4% coating by weight
Alternatively, the dipping experiment described above may be carried out by immersing the tablet in the basket in dissolution diluents (e.g., about 5% human saliva solution in water) in vial 1, moving the basket up and down for about 2-5 seconds at a speed of approximate 1 dip every two seconds; remove the basket from the diluent; take a sample of the diluent; re-immerse the tablet in the same vial. Continue the experiment similarly to collect samples until the tablet disintegrates or the preselected time course is completed, whichever comes first. In this embodiment, a new tablet is used in each vial. The experiment is repeated as described for additional nine or ten tablets (total of 10 tablets). The concentration of active ingredient, e.g., eszopiclone, in the sample solutions is then determined using LC/MS/MS (ESI mode, positive MRM scan type). The dissolution instantaneous profile of the tablets is constructed by plotting logarithmic concentration of eszopiclone versus time in seconds.
Another typical procedure for preparing the instantaneous dissolution solutions of coated tablets is described as follows: a number of tablets comprising a core and a film coating—in this case coated eszopiclone tablets—are transferred into basket sinkers and into a series of vials containing the dissolution diluents. The basket is then immersed in dissolution diluents (e.g., 5% human saliva solution in water) in vial 1 for 5 seconds, in vial 2 for 10 seconds, in vial 3 for 15 seconds dipping and so on with the series of tablets. The dissolution diluents (e.g., 5% human saliva solution in water) can be prepared by mixing thoroughly 50 mL of normal human saliva and 950 mL of water in a suitable container. About 5 mL of the 5% human saliva solution is then pipetted into several scintillation vials (approximately 20 mL volume). This procedure has been employed with tablets coated with 3-8% coating by weight.
In each scenario above, the concentration of core material, e.g., eszopiclone, the active ingredient in the sample solutions, is determined using LC/MS/MS (ESI mode, positive MRM scan type). The dissolution instantaneous profile of the tablets is constructed by plotting logarithmic concentration of eszopiclone versus time in seconds.
Described herein are instantaneous dissolution methods comprising a step using a LC/MS/MS technique to measure the concentration of the active ingredient in the instantaneous dissolution solution. Specifically, the LC/MS/MS procedure includes: centrifuge samples from above instantaneous dissolution solution at 6000×g for 5 minutes (if sample appears cloudy) to obtain clear solution; take out supernatant or clear solution and load into HPLC auto samplers. […]

[2] = Sample solution stability (short term), HPLC-MS/MS method validation; format: physicochemical; settings: stored at room temperature
Protocol: Described herein are instantaneous dissolution methods comprising a step using a LC/MS/MS technique to measure the concentration of the active ingredient in the instantaneous dissolution solution. Specifically, the LC/MS/MS procedure includes: centrifuge samples from above instantaneous dissolution solution at 6000×g for 5 minutes (if sample appears cloudy) to obtain clear solution; take out supernatant or clear solution and load into HPLC auto samplers. If the concentration of the active ingredient is above the upper calibration range (100 ng/mL), the sample solution will go through further dilution, for instance, by pipetting 100 μL of the centrifuged sample solution into 4.9 mL of sample diluents; If dilution sample is still above the calibration range, a serial dilution can be made with the dilution solution containing Internal Standard. Final diluted sample concentration should fall into the calibration range.
A summary of the HPLC-MS/MS method validation results can be found in the table below: […]

CN1CCN(C(=O)O[C@H]2c3nccnc3C(=O)N2c2ccc(Cl)cn2)CC1 [Eszopiclone, (S)-(6-(5-chloro-2-pyridyl)-5-[(4-methyl-1-piperazinyl)carbonyloxy]-7-oxo-6,7-dihydro-5H-pyrrolo[3,4-b]pyrazine)]
Mean, % dissolved results ([1]; Time 5 seconds): 5.317%
Mean, % dissolved results ([1]; Time 10 seconds): 6.875%
Mean, % dissolved results ([1]; Time 15 seconds): 7.461%
Mean, % dissolved results ([1]; Time 20 seconds): 14.144%
Mean, % dissolved results ([1]; Time 25 seconds): 12.222%
Mean, % dissolved results ([1]; Time 30 seconds): 16.625%
Mean, % dissolved results ([1]; Time 35 seconds): 22.404%
Mean, % dissolved results ([1]; Time 40 seconds): 14.658%
Mean, % dissolved results ([1]; Time 45 seconds): 14.989%
Mean, % dissolved results ([1]; Time 50 seconds): 12.477%
Sample solution stability (short term) [2]: Sample solutions are stable for 8 hours
